{"source": "patent US10487129B2", "about": "“Stabilized insulinotropic peptides and methods of use” (Dana-Farber Cancer Institute, Inc., priority 2010, dated 2019)", "key": {"[1]": {"system": "isolated pancreatic islets", "test": "Glucose-stimulated insulin release (GSIS) from isolated pancreatic islets", "format": "cell-based, mouse", "settings": "10 nM peptide, 1.67 mM to 16.7 mM glucose, 1 hour at 37° C., insulin ELISA", "protocol": "Stock solutions of SAH-Ex and SAH-GLP peptides were generated by dissolving the lyophilized powders in deionized water at 100 μM. The following treatment solutions were made for batch GSIS assays: 1.67 mM glucose, 16.7 mM glucose, 1.67 mM glucose+10 nM peptide, 16.7 mM glucose+10 nM peptide all in 1×KRB buffer, 2 mM CaCl2, 0.05% BSA. Islets isolated from wild-type mouse pancreas were washed 3 times with KRB buffer and 5 islets per experimental tube were incubated in KRB buffer containing 1.67 mM glucose for 30 min at 37° C. Islets were then pelleted and the buffer replaced with the treatment solutions listed above. Each experimental condition was examined in replicates of n=8. After 1 hour incubation at 37° C., islets were pelleted and the supernatants collected for glucose stimulated insulin release measurement. The pellets are solubilized to assess intracellular insulin content to normalize for cell number. Insulin was measured by ELISA using mouse insulin as a standard (Insulin ELISA Kit, cat. 80-INSMS-E01, ALPCO). For the insulin ELISA plots, there is a small increase in the amount of insulin released in response to escalation of the glucose dose from 1.67 mM to 16.7 mM."}, "[2]": {"biological_target": "pepsin (Sus scrofa, UniProt P00791)", "sequence (P00791 60-385)": "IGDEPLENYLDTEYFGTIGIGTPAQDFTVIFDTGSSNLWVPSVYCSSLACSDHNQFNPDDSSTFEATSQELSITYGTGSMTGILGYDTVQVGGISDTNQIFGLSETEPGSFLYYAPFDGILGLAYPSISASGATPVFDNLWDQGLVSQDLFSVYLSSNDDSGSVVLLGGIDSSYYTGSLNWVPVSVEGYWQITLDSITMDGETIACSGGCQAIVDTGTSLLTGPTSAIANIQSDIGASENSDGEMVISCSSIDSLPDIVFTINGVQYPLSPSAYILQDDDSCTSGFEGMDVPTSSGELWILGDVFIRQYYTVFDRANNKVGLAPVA", "test": "in vitro", "format": "in vitro ADME", "settings": "pH 2", "procedure": "In vitro proteolytic degradation of structured peptides was measured by LC/MS (Agilent 1200) using the following parameters: 20 μL injection, 0.6 mL flow rate, 15 min run time consisting of a gradient of water (0.1% formic acid) to 20-80% acetonitrile (0.075% formic acid) over 10 min, 4 min wash to revert to starting gradient conditions, and 0.5 min post-time. The DAD signal was set to 280 nm with an 8 nm bandwidth and MSD set to scan mode with one channel at (M+2H)/2, +1 mass units and the other at (M+3H)/3, +1 mass units. Integration of each MSD signal yielded areas under the curve of >10^8 counts. Reaction samples were composed of 5 μL peptide in DMSO (1 mM stock) and 195 μL of buffer consisting of 50 mM phosphate buffer pH 7.4 containing 2 mM CaCl2. Upon injection of the 0 hr time point sample, 2 μL of 50 ng/μL chymotrypsin (Sigma) was added and the amount of intact peptide quantitated by serial injection over time. An internal control of acetylated tryptophan carboxamide at a concentration of 100 μM was used to normalize each MSD data point. A plot of MSD area versus time yielded an exponential decay curve and half-lives were determined by nonlinear regression analysis using Prism software (GraphPad). The assay was also performed using trypsin and pepsin in their appropriate buffer conditions."}, "[3]": {"biological_target": "T1, chymotrypsin (Bos taurus, UniProt P00766)", "format": "in vitro ADME", "design": "purchased Sigma", "settings": "pH 7", "source_text": "A major limitation of peptides as therapeutics is their susceptibility to rapid proteolytic degradation. […] One of the potential benefits of a covalent crosslinking strategy to enforce peptide α-helicity is shielding of the vulnerable amide bonds from proteolysis. Because proteases require that peptides adopt an extended conformation to hydrolyze amide bonds, the structural constraint afforded by the hydrocarbon staple can render crosslinked peptides protease-resistant."}, "[4]": {"test": "Circular dichroism thermal unfolding, 5-83° C.", "format": "physicochemical"}, "[5]": {"biological_target": "T1, chymotrypsin", "test": "Chymotrypsin proteolysis of gp41-derived HIV-1 fusion inhibitor peptides", "protocol": "In vitro proteolytic degradation of structured peptides was measured by LC/MS (Agilent 1200) using the following parameters: 20 μL injection, 0.6 mL flow rate, 15 min run time consisting of a gradient of water (0.1% formic acid) to 20-80% acetonitrile (0.075% formic acid) over 10 min, 4 min wash to revert to starting gradient conditions, and 0.5 min post-time. The DAD signal was set to 280 nm with an 8 nm bandwidth and MSD set to scan mode with one channel at (M+2H)/2, +1 mass units and the other at (M+3H)/3, +1 mass units. […] Reaction samples were composed of 5 μL peptide in DMSO (1 mM stock) and 195 μL of buffer consisting of 50 mM phosphate buffer pH 7.4 containing 2 mM CaCl2. Upon injection of the 0 hr time point sample, 2 μL of 50 ng/μL chymotrypsin (Sigma) was added and the amount of intact peptide quantitated by serial injection over time. An internal control of acetylated tryptophan carboxamide at a concentration of 100 μM was used to normalize each MSD data point. A plot of MSD area versus time yielded an exponential decay curve and half-lives were determined by nonlinear regression analysis using Prism software (GraphPad). The assay was also performed using trypsin and pepsin in their appropriate buffer conditions."}, "[6]": {"test": "Circular dichroism melting of gp41 peptides", "format": "physicochemical", "settings": "circular dichroism melting profile", "protocol": "The alpha-helicity of stapled modified polypeptides was compared to their unmodified counterparts by circular dichroism. CD spectra were obtained on an Aviv spectropolarimeter at 20° C. using the following standard measurement parameters: wavelength, 190-260 nm; step resolution, 0.5 nm; speed, 20 nm/sec; accumulations, 10; response, 1 sec; bandwidth, 1 nm; path length, 0.1 cm. The alpha-helical content of each peptide was calculated by dividing the mean residue ellipticity [θ]222obs by the reported [θ]222obs for a model helical peptide (Forood, B., E. J. Feliciano, and K. P. Nambiar, PNAS, 1993. 90(3): p. 838-842; J. Martin Scholtz, Biopolymers, 1991. 31(13): p. 1463-1470; Lawless, M. K., et al., Biochemistry, 1996. 35(42): p. 13697-13708) or using, for example, the Aviv machine using CDNN software developed by Brohm in order to deduce five different secondary structure fractions (helix, parallel and antiparallel beta-sheet, beta-turn and random coil). Protein Engineering, 1992. 5(3); p. 191-195. Thermal stability is assessed by acquiring circular dichroism spectra across a broad temperature range and determining the melting temperatures for each constrained peptide."}}, "note": "Positions of bridges follow the written chain, without caps; N, C: chain ends. Non-standard residues stand in square brackets, D forms with d. Residues, ends and D or L forms follow the SMILES beside them. No end group written: not given here. S5 = C=CCCC[C@](C)(N)C(=O)O; Nle = CCCC[C@H](N)C(=O)O"}
{"molecule": "GLP1: Glucagon-like Peptide-1, insulin secretagogue (HAEGTFTSDVSSYLEGQAAKEFIAWLVKGR; ends and bridges not checked; UniProt P01275 98-127, looked up)", "values": [{"measurement": "glucose-stimulated insulin release (GSIS)", "setting": "[1]", "result": "substantial increase in GSIS"}]}
{"molecule": "CC[C@H](C)[C@H](NC(=O)[C@H](Cc1ccccc1)NC(=O)[C@H](CC(C)C)NC(=O)[C@H](CCCNC(=N)N)NC(=O)[C@@H](NC(=O)[C@H](C)NC(=O)[C@H](CCC(=O)O)NC(=O)[C@H](CCC(=O)O)NC(=O)[C@H](CCC(=O)O)NC(=O)[C@]1(C)CCCC=CCCC[C@](C)(NC(=O)[C@H](CC(=O)O)NC(=O)[C@H](CO)NC(=O)[C@@H](NC(=O)[C@H](Cc2ccccc2)NC(=O)[C@@H](NC(=O)CNC(=O)[C@H](CCC(=O)O)NC(=O)CNC(=O)[C@@H](N)Cc2c[nH]cn2)[C@@H](C)O)[C@@H](C)O)C(=O)N[C@@H](CO)C(=O)N[C@@H](CCCCN)C(=O)N[C@@H](CCC(N)=O)C(=O)N1)C(C)C)C(=O)N[C@@]1(C)CCCC=CCCC[C@@](C)(C(=O)NCC(=O)NCC(=O)N2CCC[C@H]2C(=O)N[C@@H](CO)C(=O)N[C@@H](CO)C(=O)NCC(=O)N[C@@H](C)C(=O)N2CCC[C@H]2C(=O)N2CCC[C@H]2C(=O)N2CCC[C@H]2C(=O)N[C@@H](CO)C(N)=O)NC(=O)[C@H](CCCCN)NC(=O)[C@H](CC(C)C)NC(=O)[C@H](Cc2c[nH]c3ccccc23)NC1=O", "note": "(single isomer, unassigned) [SAH-Ex(A, B)]", "values": [{"measurement": "enhancement in pepsin resistance compared to the template peptide", "setting": "[2]", "result": 13, "unit": "fold"}, {"measurement": "half-life at 25 μM", "setting": "[2]", "result": 2.87, "unit": "h"}, {"measurement": "enhancement in chymotrypsin resistance compared to the singly stapled peptides", "setting": "[3]", "result": "up to 4 fold"}, {"measurement": "enhancement in chymotrypsin resistance compared to the template peptide", "setting": "[3]", "result": 8, "unit": "fold"}, {"measurement": "slope of temperature melt line", "setting": "[4]", "result": "flatter sloped line"}]}
{"molecule": "CCCC[C@H](NC(=O)[C@H](Cc1c[nH]c2ccccc12)NC(=O)[C@@H](NC(=O)[C@@H](N)CCCC)[C@@H](C)O)C(=O)N[C@@H](CCC(=O)O)C(=O)N[C@@H](Cc1c[nH]c2ccccc12)C(=O)N[C@@H](CC(=O)O)C(=O)N[C@@H](CCCNC(=N)N)C(=O)N[C@@H](CCC(=O)O)C(=O)N[C@H](C(=O)N[C@@H](CC(N)=O)C(=O)N[C@@H](CC(N)=O)C(=O)N[C@@H](Cc1ccc(O)cc1)C(=O)N[C@H](C(=O)N[C@@H](CO)C(=O)N[C@@H](CC(C)C)C(=O)N[C@H](C(=O)N[C@@H](Cc1c[nH]cn1)C(=O)N[C@@H](CO)C(=O)N[C@@H](CC(C)C)C(=O)N[C@H](C(=O)N[C@@H](CCC(=O)O)C(=O)N[C@@H](CCC(=O)O)C(=O)N[C@@H](CO)C(=O)N[C@@H](CCC(N)=O)C(=O)N[C@@H](CC(N)=O)C(=O)N[C@@H](CCC(N)=O)C(=O)N[C@@]1(C)CCCC=CCCC[C@@](C)(C(=O)N[C@@H](CCC(N)=O)C(=O)N[C@@H](CCC(=O)O)C(=O)N[C@@H](CC(C)C)C(=O)N[C@@H](CC(C)C)C(=O)N[C@@H](CCC(=O)O)C(N)=O)NC(=O)[C@H](CC(N)=O)NC(=O)[C@H](CCCCN)NC(=O)[C@H](CCC(=O)O)NC1=O)[C@@H](C)CC)[C@@H](C)CC)[C@@H](C)O)[C@@H](C)CC", "note": "[SAH-gp41(626-662)(B)] (H-[Nle]TW[Nle]EWDREINNYTSLIHSLIEESQNQ[S5]EKN[S5]QELLE-NH2; staple 28-32; N-terminus assumed)", "values": [{"measurement": "half-life", "setting": "[5]", "result": 1.28, "unit": "h"}]}
{"molecule": "C=CCCC[C@](C)(NC(=O)[C@H](CC(N)=O)NC(=O)[C@H](CCCCN)NC(=O)[C@H](CCC(=O)O)NC(=O)[C@](C)(CCCC=C)NC(=O)[C@H](CCC(N)=O)NC(=O)[C@H](CC(N)=O)NC(=O)[C@H](CCC(N)=O)NC(=O)[C@H](CO)NC(=O)[C@H](CCC(=O)O)NC(=O)[C@H](CCC(=O)O)NC(=O)[C@@H](NC(=O)[C@H](CC(C)C)NC(=O)[C@H](CO)NC(=O)[C@H](Cc1c[nH]cn1)NC(=O)[C@@H](NC(=O)[C@H](CC(C)C)NC(=O)[C@H](CO)NC(=O)[C@@H](NC(=O)[C@H](Cc1ccc(O)cc1)NC(=O)[C@H](CC(N)=O)NC(=O)[C@H](CC(N)=O)NC(=O)[C@@H](NC(=O)[C@H](CCC(=O)O)NC(=O)[C@](C)(CCCC=C)NC(=O)[C@H](CC(=O)O)NC(=O)[C@H](Cc1c[nH]c2ccccc12)NC(=O)[C@H](CCC(=O)O)NC(=O)[C@](C)(CCCC=C)NC(=O)[C@H](Cc1c[nH]c2ccccc12)NC(=O)[C@@H](NC(=O)[C@@H](N)CCCC)[C@@H](C)O)[C@@H](C)CC)[C@@H](C)O)[C@@H](C)CC)[C@@H](C)CC)C(=O)N[C@@H](CCC(N)=O)C(=O)N[C@@H](CCC(=O)O)C(=O)N[C@@H](CC(C)C)C(=O)N[C@@H](CC(C)C)C(=O)N[C@@H](CCC(=O)O)C(N)=O", "note": "[UAH-gp41(626-662)(A,B)] (H-[Nle]TW[S5]EWD[S5]EINNYTSLIHSLIEESQNQ[S5]EKN[S5]QELLE-NH2; N-terminus assumed)", "values": [{"measurement": "Tm", "setting": "[6]", "result": 27, "unit": "°C"}, {"measurement": "half-life", "setting": "[5]", "result": 0.6, "unit": "h"}, {"measurement": "protection from chymotrypsin proteolysis, result in words", "setting": "[5]", "result": "does not confer significant protection"}]}
